The structures appear in SMILES notation. Where two headings read alike, the source gives them in different places. Some results are limits rather than exact numbers.

What all share (test): Broth two-fold serial dilution MIC test
For assay [1], the system named is Pseudomonas aeruginosa. The assay is classed as cell-based, Pseudomonas aeruginosa (ATCC 15442). Conditions: Table 2, Psae. The text has this: (§1) A minimum inhibitory concentration (MIC) value is obtained using a broth, two-fold serial dilution test performed as follows: A stock solution or dispersion of the test compound, typically at a concentration of 1%, is made in a 5:3:2 solvent solution of acetone. methanol, and water. A volume of the stock solution is dispensed into culture media to give an initial starting test concentration of 500 ppm compound.
(§2) When the test is ready to be done, each vessel in the dilution series, except the first vessel, contains an equal volume of compound free broth. The first vessel contains twice the volume of broth with the starting concentration of test compound. One half of the broth from the first vessel is transferred to the second vessel- After being mixed, one half the resulting volume is removed from the second vessel and transferred to the third vessel. The entire cycle is repeated sufficiently to give a series of concentrations amounting to 500, 250, 125, 63, 31, 16, 8, and 4, 2, 1, 0.5, 0.25 ppm respectively.
(§3) Each vessel is then inoculated with a cell suspension of the appropriate test organism. Bacteria are grown in broth, fungi on agar slants for a time and at a temperature appropriate to the species being tested, and algae are a mixture of green algae and blue-green bacteria grown in a nutrient media. At the end of the growth period, in the case of bacteria, the broth is vortexed to disperse the cells.
(§4) In the case of fungi, the spores are harvested by pipetting water onto the slant and dislodging the spores with a sterile loop. The cell/spore suspension is standardized by controlling incubation time, temperature, and the volume of the diluent. The suspension is then used to inoculate the vessels containing the broth compound.
(§5) The vessels are then incubated at the appropriate temperature. After the incubation, the vessels are examined for growth/no growth. The minimum inhibitory concentration (MIC) is defined as the lowest concentration of compound that results in complete inhibition of growth of the test organism.
1. Pseudomonas aeruginosa

The test system of assay [2] is Escherichia coli. The assay is classed as cell-based, Escherichia coli (ATCC 11229). Conditions: Table 2, Ecol.
From the text: as §1, §2, §3, §4, §5

In assay [3] the test system is Staphylococcus aureus. The assay is classed as cell-based, Staphylococcus aureus (ATCC 6538). The note with it: Table 2, Saur.
From the text: as §1, §2, §3, §4, §5
2. Staphylococcus aureus

For assay [4], the system named is Aspergillus niger. The assay is classed as cell-based, Aspergillus niger (ATCC 6275). The note with it: Table 2, Anig, TSB media.
From the text: as §1, §2, §3, §4, §5
4. Aspergillus niger 6275 Anig

[5] abbreviates: Pseudomonas aeruginosa, M9G media, read-out: MIC.
Setting [6] is: Pseudomonas aeruginosa, TSB media, read-out: MIC.
Setting [7] is: Escherichia coli, M9G media, read-out: MIC.
Where [8] appears, read: Escherichia coli, TSB media, read-out: MIC.
Setting [9] is: Staphylococcus aureus, M9G media, read-out: MIC.
Where [10] appears, read: Staphylococcus aureus, TSB media, read-out: MIC.
The mark [11] stands for this setting: Aspergillus niger, read-out: MIC.

`CCCCCCCCCC[N+]1(CC#CI)CCOCC1` [Compound 91, 4-decyl-4-(3-iodopropargyl)-morpholinium methanesulfonate]: the MIC is 250 µg/mL in assay [1] (setting [5]); greater than 500 µg/mL in assay [1] (setting [6]); 4 µg/mL in assay [2] (setting [7]); 8 µg/mL in assay [2] (setting [8]); 1 µg/mL in assay [3] (setting [9]); 8 µg/mL in assay [3] (setting [10]). In assay [4] (setting [11]), the MIC was determined as 32 µg/mL.

Consider `CCCCCCCCCCCCC[N+]1(CC#CI)CCCC1` [Compound 31, 1-tridecyl-1-(3-iodopropargyl)-pyrrolidinium benzenesulfonate], for which the MIC in assay [1] (M9G media) is recorded as 32 ppm; in assay [1] (TSB media) it was 32 ppm; in assay [2] (M9G media) it was 1 ppm; in assay [2] (TSB media) it was 16 ppm; in assay [3] (M9G media), 0.5 ppm; in assay [3] (TSB media), less than 0.25 ppm. The compound further yielded an MIC in assay [4] of 1 ppm.

Regarding `CCCCCCCCCCCCCC[N+]1(CC#CI)CC(C)OC(C)C1` (stereo not shown) [Compound 43, 4-tetradecyl-4-(3-iodopropargyl)-2,6-dimethylmorpholinium 4-methylbenzenesulfonate], the MIC in assay [1] (setting [5]) is 2 µg/mL; in assay [1] (setting [6]), 4 µg/mL; in assay [2] (setting [7]), less than 0.25 µg/mL; in assay [2] (setting [8]), 0.5 µg/mL; in assay [3] (setting [9]), less than 0.25 µg/mL; in assay [3] (setting [10]), 0.5 µg/mL. For the same compound, in assay [4] (setting [11]), the MIC is 1 µg/mL.

Take `CCCCCCCCCCCCCC[N+]1(CC#CI)CCOCC1` [Compound 28, 4-tetradecyl-4-(3-iodopropargyl)-morpholinium 4-methylbenzenesulfonate]: the MIC turned out to be 4 ppm in assay [1] (M9G media); 4 ppm in assay [1] (TSB media); 1 ppm in assay [2] (M9G media); 2 ppm in assay [2] (TSB media); 0.25 µg/mL in assay [3] (setting [9]); 0.25 ppm in assay [3] (TSB media). In addition, the MIC in assay [4] is on record as 8 ppm.

As to `CCCCCCCCCCCC[N+]1(CC#CI)CCCC1` [Compound 79, 1-dodecyl-1-(3-iodopropargyl)-pyrrolidinium bromide], the MIC is reported as 32 ppm in assay [1] (M9G media); 64 ppm in assay [1] (TSB media); 1 ppm in assay [2] (M9G media); 4 ppm in assay [2] (TSB media); 0.25 ppm in assay [3] (M9G media); 1 ppm in assay [3] (TSB media). In assay [4], this compound showed an MIC of 2 ppm.

`CCCCCCCCCCCCCCCC[N+]1(CC#CI)CCCC1` [Compound 32, 1-hexadecyl-1-(3-iodopropargy)-pyrrolidinium benzenesulfonate]: the MIC in assay [1] (M9G media) is given as 32 ppm; in assay [1] (TSB media), 125 ppm; in assay [2] (M9G media), 4 ppm; in assay [2] (TSB media), 16 ppm; in assay [3] (M9G media) it was less than 0.25 ppm; in assay [3] (TSB media), less than 0.25 ppm. The same compound registered an MIC in assay [4] of less than 0.25 ppm.

Turning to `OCCCCCCCC[N+]1(CC#CI)CCCCC1` [Compound 23, 1-(8-hydroxyoctyl)-1-(3-iodopropargyl)-1-piperidinium 4-methylbenzenesulfonate], the MIC was greater than 500 µg/mL in assay [1] (setting [5]); greater than 500 µg/mL in assay [1] (setting [6]); greater than 500 µg/mL in assay [2] (setting [8]); 63 µg/mL in assay [3] (setting [9]); 250 µg/mL in assay [3] (setting [10]); greater than 500 µg/mL in assay [4] (setting [11]).

Turning to `CCCCCCCCCCCCCC[N+]1(CC#CI)CCCCC1C` (stereo not shown) [Compound 51, 1-(tetradecyl)-1-(3-iodopropargyl)-2-methylpiperidinium benzenesulfonate], the MIC was 16 ppm in assay [1] (M9G media); 16 ppm in assay [1] (TSB media); 4 µg/mL in assay [2] (setting [7]); 2 ppm in assay [2] (TSB media); less than 0.25 ppm in assay [3] (M9G media); less than 0.25 ppm in assay [3] (TSB media). For the same compound, the MIC in assay [4] (setting [11]) came to 0.5 µg/mL.

In the case of `CCCCCCCCCCOC(=O)CC[N+]1(CC#CI)CCOCC1` [Compound 95, 4-[2-(decyloxycarbonyl)]ethyl-4-(3-iodopropargyl)-morpholinium methanesulfonate], the MIC in assay [1] (setting [5]) was found to be 500 µg/mL; in assay [1] (setting [6]), 500 µg/mL; in assay [2] (setting [7]), 16 µg/mL; in assay [2] (setting [8]) it was 64 µg/mL; in assay [3] (setting [9]), 32 µg/mL; in assay [3] (setting [10]) it was 64 µg/mL. Besides, in assay [4] (setting [11]), the MIC worked out at 32 µg/mL.

Consider `CCCCCCCCCCCCC[N+]1(CC#CI)CCCC1` [Compound 8, 1-tridecyl-1-(3-iodopropargyl)-pyrrolidinium 4-methylbenzenesulfonate], for which the MIC in assay [1] (setting [5]) stood at 16 µg/mL; in assay [1] (TSB media), 16 ppm; in assay [2] (setting [7]), 2 µg/mL; in assay [2] (TSB media), 4 ppm; in assay [3] (setting [9]), 0.5 µg/mL; in assay [3] (TSB media), 1 ppm. Besides, in assay [4] (setting [11]), the MIC was determined as 1 µg/mL.

With `CCCCCCCCCCCCCC[N+]1(CC#CI)CCCCC1` [Compound 85, 1-tetradecyl-1-(3-iodoproparygyl)-piperidinium n-butylsulfonate], the MIC in assay [1] (M9G media) worked out at 8 ppm; in assay [1] (TSB media), 32 ppm; in assay [2] (M9G media), 1 ppm; in assay [2] (TSB media) it was 4 ppm; in assay [3] (M9G media), 0.25 ppm; in assay [3] (TSB media), 0.25 ppm. For the same compound, the MIC in assay [4] came to 4 ppm.

For `CCCCCCCCCCCC[N+]1(CC#CI)CCCC1` [Compound 30, 1-dodecyl-1-(3-iodopropargyl)-pyrrolidinium benzenesulfonate], the MIC in assay [1] (M9G media) was 63 ppm; in assay [1] (TSB media), 63 ppm; in assay [2] (M9G media), 2 ppm; in assay [2] (TSB media), 16 ppm; in assay [3] (M9G media), 1 ppm; in assay [3] (TSB media) it was 1 ppm. The MIC in assay [4] turned out to be 1 ppm.

As for `OCCCCCCCCC[N+]1(CC#CI)CCCC1` [Compound 5, 1-(9-hydroxynonyl)-1-(3-iodopropargyl)-pyrrolidinium 4-methylbenzenesulfonate], the MIC is greater than 500 µg/mL in assay [1] (setting [5]); greater than 500 µg/mL in assay [1] (setting [6]); greater than 500 µg/mL in assay [2] (setting [7]); greater than 500 µg/mL in assay [2] (setting [8]); 63 µg/mL in assay [3] (setting [9]); 63 µg/mL in assay [3] (setting [10]). In addition, the MIC in assay [4] (setting [11]) was determined as 250 µg/mL.

In the case of `CCCCCCCCCCCCCCCC[N+]1(CC#CI)CCCCC1` [Compound 61, 1-hexadecyl-1-(3-iodopropargyl)-piperidinium methanesulfonate], the MIC in assay [1] (M9G media) was determined as 16 ppm; in assay [1] (TSB media), 125 ppm; in assay [2] (M9G media), 8 ppm; in assay [2] (TSB media) it was 8 ppm; in assay [3] (M9G media), 2 ppm; in assay [3] (TSB media), 2 ppm. In assay [4], this compound came in with an MIC of 8 ppm.

On to `IC#CC[N+]1(Cc2ccccc2)CCOCC1` [Compound 73, 4-benzyl-4-(3-iodopropargyi)-morpholinium 4-methylbenzenesulfonate], for which the MIC is greater than 500 µg/mL in assay [1] (setting [5]); greater than 500 µg/mL in assay [1] (setting [6]); 125 µg/mL in assay [2] (setting [7]); 125 µg/mL in assay [2] (setting [8]); 125 µg/mL in assay [3] (setting [9]); 250 µg/mL in assay [3] (setting [10]). The MIC in assay [4] (setting [11]) was determined as 125 µg/mL.

`OCCCCCCCC[N+]1(CC#CI)CCCC1` [Compound 3, 1-(8-hydroxyoctyl)-1-(3-iodopropargyl)-pyrrolidinium 4-methylbenzenesulfonate]: the MIC in assay [1] (setting [5]) was greater than 500 µg/mL; in assay [1] (setting [6]), greater than 500 µg/mL; in assay [2] (setting [8]) it was greater than 500 µg/mL; in assay [3] (setting [9]), 500 µg/mL; in assay [3] (setting [10]), greater than 500 µg/mL; in assay [4] (setting [11]), greater than 500 µg/mL.

`CCCCCCCCCCCCCC[N+]1(CC#CI)CCCC1` [Compound 69, 1-tetradecyl-1-(3-iodopropargyl)-pyrrolidinium bromide]: the MIC in assay [1] (M9G media) came out at 8 ppm; in assay [1] (TSB media), 32 ppm; in assay [2] (M9G media), 1 ppm; in assay [2] (TSB media) it was 4 ppm; in assay [3] (M9G media) it was 0.25 ppm; in assay [3] (TSB media), 0.25 ppm. The compound also showed an MIC in assay [4] of 4 ppm.

On to `OCCCCCCC[N+]1(CC#CI)CCCC1` [Compound 4, 1-(7-hydroxyheptyl)-1-(3-iodopropargyl)-pyrrolidinium 4-methybenzenesulfonate], for which the MIC in assay [1] (setting [5]) is greater than 500 µg/mL; in assay [1] (setting [6]), greater than 500 µg/mL; in assay [2] (setting [7]) it was greater than 500 µg/mL; in assay [2] (setting [8]), 500 µg/mL; in assay [3] (setting [9]), 500 µg/mL; in assay [3] (setting [10]), 500 µg/mL. In addition, the MIC in assay [4] (setting [11]) stood at 250 µg/mL.
